The source of these data is patent US20060128759A1, “Substituted isoxazole derivatives and their use in pharmaceutics” (MERCKLE GMBH, priority 2002, published 2006).

In this assay the target is p38α (Homo sapiens, UniProt Q16539). The assay is described as follows: Kinase assay (phosphorylation of ATF2 by activated p38α, ELISA readout at 405 nm). The format is biochemical. The settings on record: for IC50: activated p38α, ATF2 substrate, 100 μM ATP, 37° C., 1 hour, read-out: IC50 p 38. As to the method: • 1) The mononuclear cells (PBMCs) from human potassium-EDTA whole blood, diluted 1:3, are isolated by density gradient centrifugation (Histopaque®-1.077). The cells are washed twice with DPBS buffer, resuspended in macrophage SFM medium and adjusted to a cell count of 1*10^6 cells/ml. • The resulting PBMCs suspension (samples of in each case 390 μl) and the test substance are preincubated at 37° C. in a CO2 incubator (5% CO2; 95% moisture-saturated air) for 15 min. The samples are then stimulated with in each case 1 μl/ml of LPS (E. coli 026:B6) at 37° C. in a CO2 incubator (5% CO2; 95% moisture-saturated air) for 4 hours. The reaction is stopped by placing the samples on ice, adding DPBS buffer and then centrifuging at 15 880*g for 12 min. The amount of IL-1β and TNFα in the plasma supernatant is then determined by ELISA. • 2) Kinase assay • At 37° C., microtiter plates were coated for one hour with 50 μl of ATF2 solution (20 μg/ml). The plates were washed three times with water, and 50 μl of kinase mixture (50 mM tris-HCl 10 mM MgCl2, 10 mM β-glycerol phosphate, 10 μg/ml of BSA, 1 mM DTT, 100 μM ATP, 100 μM Na3VO4, 10 ng of activated p38α) with or without inhibitor were added into the wells, and the plates were incubated at 37° C. for 1 hour. The plates were washed three times and then incubated with phosphorus-ATF-2 antibody at 37° C. for one hour. The plates were once more washed three times, and goat-antirabbit IgG labeled with alkaline phosphatase was added at 37° C. for one hour (to fix the antibody-phosphorylated protein/substrate complex). The plates were washed three times, and the alkaline phosphatase/substrate solution (3 mM 4-NPP, 50 mM NaHCO3, 50 mM MgCl2, 100 μl/well) was added at 37° C. for 1.5 hours. […] The IC50 values were calculated.
On the technique in general: An ELISA detects its analyte on a solid surface through an enzyme-linked reagent.

Chain of p38α (Q16539 whole entry): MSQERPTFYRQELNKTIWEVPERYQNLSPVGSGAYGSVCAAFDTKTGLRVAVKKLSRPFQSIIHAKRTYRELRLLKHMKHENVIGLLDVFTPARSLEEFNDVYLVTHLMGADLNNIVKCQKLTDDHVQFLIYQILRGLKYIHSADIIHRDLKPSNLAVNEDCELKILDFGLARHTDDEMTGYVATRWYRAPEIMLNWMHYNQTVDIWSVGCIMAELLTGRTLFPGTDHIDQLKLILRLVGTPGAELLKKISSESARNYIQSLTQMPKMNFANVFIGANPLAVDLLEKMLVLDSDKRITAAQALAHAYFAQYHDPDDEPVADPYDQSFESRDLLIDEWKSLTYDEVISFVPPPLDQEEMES

The term IC50 denotes the concentration that inhibits the measured activity by half. Regarding “4-[5-(ethoxyphenyl)-4-(4-fluorophenyl)isoxazol-3-yl]pyridine [Compound 11]”, the IC50 was found to be 10 µM. In the case of `Cc1onc(-c2ccncc2)c1-c1ccc(F)cc1` [Compound 1, 4-[4-(4-fluorophenyl)-5-methylisoxazol-3-yl]pyridine], the IC50 was 67.5 µM. On to `CC(=O)Nc1cc(-c2onc(-c3ccncc3)c2-c2ccc(F)cc2)ccn1` [Compound 3, N-{4-[4-(4-fluorophenyl)-3-pyridin-4-ylisoxazol-5-yl]pyridine-2-yl}acetamide], for which the IC50 turned out to be 30 µM.

Turning to `CN(C)Cc1onc(-c2ccncc2)c1-c1ccc(F)cc1` [Compound 4, [4-(4-fluorophenyl)-3-pyridin-4-ylisoxazol-5-ylmethyl]dimethylamine], the 50% inhibitory concentration (IC50) stood at 4 µM.

For `Fc1ccc(-c2c(-c3ccncc3)noc2-c2ccccc2)cc1` [Compound 5, 4-[4-(4-fluorophenyl)-5-phenylisoxazol-3-yl]pyridine], the half-maximal inhibitory concentration (IC50) turned out to be 22 µM. For `Fc1ccc(-c2c(-c3ccncc3)noc2-c2ccco2)cc1` [Compound 6, 4-[4-(4-fluorophenyl)-5-furan-2-ylisoxazol-3-yl]pyridine], the IC50 is 22 µM. In the case of `Fc1ccc(-c2c(-c3ccncc3)noc2C2CC2)cc1` [Compound 7, 4-[5-cyclopropyl-4-(4-fluorophenyl)isozazol-3-yl]pyridine], the IC50 turned out to be 28 µM. Regarding `CN(C)c1ccc(-c2onc(-c3ccncc3)c2-c2ccc(F)cc2)cc1` [Compound 8, {4-[4-(4-fluorophenyl)-3-pyridin-4-ylisoxazol-5-yl]phenyl}dimethylamine], the IC50 came to 27 µM.

For the compound `Fc1ccc(-c2c(-c3ccncc3)noc2N2CCCCC2)cc1` [Compound 9, 4-[4-(4-fluorophenyl)-5-piperidin-1-ylisoxazol-3-yl]pyridine], the IC50 was 10 µM.

On to `COc1ccc(-c2onc(-c3ccncc3)c2-c2ccc(F)cc2)cc1` [Compound 10, 4-[4-(4-fluorophenyl)-5-(4-methoxyphenyl)isoxazol-3-yl]pyridine], for which the IC50 was 10 µM. Usually inhibition stands for the change of the read-out against control, counted positive when it falls. Take `Fc1ccc(-c2noc(-c3ccc(F)cc3)c2-c2ccncc2)cc1` [Compound 14, 4-[3,5-Bis(4-fluorophenyl)isoxazol-4-yl]pyridine]: under “at 10^−5 mol/l, read-out: % inhibition of p 38”, the inhibition at 10 µM turned out to be 43.6%.
